Measurements as given in the supplement of paper PMC8960247.
Structures can show the parent of a compound that is named as a salt. ± gives the standard error.

tested on: 621-103 (TSC2-rescued); test: relative viability vs DMSO; higher = less cytotoxic; details: 0.0001 µM; serum: 10% FBS; 72 h
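Further: immortalized renal angiomyolipoma cells stably carrying empty vector or TSC2, dosed in 384-well plates in DMEM, viability normalized to vehicle-treated wells within each plate.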

| SMILES | relative viability [%] |
| --- | --- |
| CCN1CCN(C(=O)Cc2ccc(Nc3ncc(F)c(Nc4ccc(C(=O)Nc5ccccc5Cl)cc4)n3)cc2)CC1 [Aurora A Inhibitor I] | 101 ± 0.28 |
| CC(C)c1cc(C(C)C)c(CC(=O)NS(=O)(=O)Oc2c(C(C)C)cccc2C(C)C)c(C(C)C)c1 [Avasimibe (CI-1011)] | 108 ± 8.1 |
| CNC(=O)c1ccccc1Sc1ccc2c(/C=C/c3ccccn3)n[nH]c2c1 [Axitinib] | 86.7 ± 7.2 |
| CN1CCCC(n2nc(Cc3ccc(Cl)cc3)c3ccccc3c2=O)CC1 (centres undefined) [Azelastine HCl (Astelin)] | 101 ± 3.8 |
| CNC(=O)c1cc(Oc2ccc(NC(=O)Nc3ccc(Cl)c(C(F)(F)F)c3)c(F)c2)ccn1 [BAY 73-4506 (Regorafenib)] | 98.01 ± 0.19 |
| CC[C@@H]1C(=O)N(C)c2cnc(Nc3ccc(C(=O)N[C@H]4CC[C@H](N5CCN(CC6CC6)CC5)CC4)cc3OC)nc2N1C(C)C [BI6727 (Volasertib)] | 76.3 ± 0.95 |
| CC[C@@H]1C(=O)N(C)c2cnc(Nc3ccc(C(=O)NC4CCN(C)CC4)cc3OC)nc2N1C1CCCC1 [BI 2536] | 98.6 ± 1.3 |
| COC(=O)c1ccc2c(C(=Nc3ccc(N(C)C(=O)CN4CCN(C)CC4)cc3)c3ccccc3)c(O)[nH]c2c1 [BIBF1120 (Vargatef)] | 86 ± 5.4 |
| C/C(=C\C(=O)Nc1ccccc1C(=O)O)c1ccc2ccccc2c1 [BIBR1532] | 110 ± 3.1 |
| Cn1c(CNc2ccc(C(=N)N)cc2)nc2cc(C(=O)N(CCC(=O)O)c3ccccn3)ccc21 [BIBR 953] | 78 ± 9 |
| CCCCCCOC(=O)NC(=N)c1ccc(NCc2nc3cc(C(=O)N(CCC(=O)OCC)c4ccccn4)ccc3n2C)cc1 [BIBR-1048] | 82.2 ± 13 |
| CN(C)C/C=C/C(=O)Nc1cc2c(Nc3ccc(F)c(Cl)c3)ncnc2cc1O[C@H]1CCOC1 [BIBW2992 )Tovok)] | 98.7 ± 5.2 |
| COc1c(C)cnc(Cn2cnc3c(Cl)nc(N)nc32)c1C [BIIB021] | 108.8 ± 0.79 |
| Cc1ccc(-n2nc(C(C)(C)C)cc2NC(=O)Nc2ccc(OCCN3CCOCC3)c3ccccc23)cc1 [BIRB 796] | 98 ± 1.9 |
| Nc1cc(C(F)(F)F)c(-c2cc(N3CCOCC3)nc(N3CCOCC3)n2)cn1 [BKM120 (NVP-BKM120)] | 102 ± 2.4 |
| COc1ccccc1N1CCN(CCN2C(=O)CC3(CCCC3)CC2=O)CC1 [BMY 7378] | 96.7 ± 4.4 |
| CC(C)c1cnn2c(NCc3ccccc3)cc(NCCCCCCN)nc12 [BS-181] | 101 ± 2.2 |
| NC(=O)c1ccc(I)c([N+](=O)[O-])c1 [BSI-201] | 108 ± 2.5 |
| O=C(O)[C@H]1O[C@@H](Oc2cc3oc(-c4ccccc4)cc(=O)c3c(O)c2O)[C@H](O)[C@@H](O)[C@@H]1O [Baicalin] | 113.5 ± 0.92 |
| CCOC(=O)[C@H](CCc1ccccc1)N[C@H]1CCc2ccccc2N(CC(=O)O)C1=O [Benazepril HCl] | 82.5 ± 11 |
| NC(CO)C(=O)NNCc1ccc(O)c(O)c1O (centres undefined) [Benserazide HCl] | 108.8 ± 0.38 |
| CC(C[N+](C)(C)C)OC(N)=O (centres undefined) [Bethanechol chloride] | 96.28 ± 0.78 |
| CC(O)(CS(=O)(=O)c1ccc(F)cc1)C(=O)Nc1ccc(C#N)c(C(F)(F)F)c1 (centres undefined) [Bicalutamide (Casodex)] | 105.2 ± 0.55 |
| COc1cc(Nc2c(C#N)cnc3cc(OCCCN4CCN(C)CC4)c(OC)cc23)c(Cl)cc1Cl [Bosutinib (SKI-606)] | 85.39 ± 0.5 |
| CCCCN1CCCCC1C(=O)Nc1c(C)cccc1C (centres undefined) [Bupivacaine HCl (marcain)] | 89.4 ± 2.3 |
| CC[C@H](Nc1ncnc2[nH]cnc12)c1nc2cccc(F)c2c(=O)n1-c1ccccc1 [CAL-101] | 116 ± 3.1 |
| O=C(O)c1ccc2c(c1)nc(Nc1cccc(Cl)c1)c1ccncc12 [CX-4945] | 109 ± 5.8 |
| Cc1nc(N)sc1-c1ccnc(Nc2ccc(N3CCOCC3)cc2)n1 [CYC116] | 91.6 ± 5.4 |

same assay, conditions: 0.001 µM; serum: 10% FBS; 72 h

| SMILES | relative viability [%] |
| --- | --- |
| CCN1CCN(C(=O)Cc2ccc(Nc3ncc(F)c(Nc4ccc(C(=O)Nc5ccccc5Cl)cc4)n3)cc2)CC1 [Aurora A Inhibitor I] | 100.7 ± 0.54 |
| CC(C)c1cc(C(C)C)c(CC(=O)NS(=O)(=O)Oc2c(C(C)C)cccc2C(C)C)c(C(C)C)c1 [Avasimibe (CI-1011)] | 99.44 ± 0.32 |
| CNC(=O)c1ccccc1Sc1ccc2c(/C=C/c3ccccn3)n[nH]c2c1 [Axitinib] | 97.7 ± 3.4 |
| CN1CCCC(n2nc(Cc3ccc(Cl)cc3)c3ccccc3c2=O)CC1 (centres undefined) [Azelastine HCl (Astelin)] | 92.3 ± 4.6 |
| CNC(=O)c1cc(Oc2ccc(NC(=O)Nc3ccc(Cl)c(C(F)(F)F)c3)c(F)c2)ccn1 [BAY 73-4506 (Regorafenib)] | 99.11 ± 0.79 |
| CC[C@@H]1C(=O)N(C)c2cnc(Nc3ccc(C(=O)N[C@H]4CC[C@H](N5CCN(CC6CC6)CC5)CC4)cc3OC)nc2N1C(C)C [BI6727 (Volasertib)] | 61.81 ± 0.53 |
| CC[C@@H]1C(=O)N(C)c2cnc(Nc3ccc(C(=O)NC4CCN(C)CC4)cc3OC)nc2N1C1CCCC1 [BI 2536] | 66.74 ± 0.51 |
| COC(=O)c1ccc2c(C(=Nc3ccc(N(C)C(=O)CN4CCN(C)CC4)cc3)c3ccccc3)c(O)[nH]c2c1 [BIBF1120 (Vargatef)] | 97.2 ± 3.1 |
| C/C(=C\C(=O)Nc1ccccc1C(=O)O)c1ccc2ccccc2c1 [BIBR1532] | 98.3 ± 5 |
| Cn1c(CNc2ccc(C(=N)N)cc2)nc2cc(C(=O)N(CCC(=O)O)c3ccccn3)ccc21 [BIBR 953] | 76.5 ± 10 |
| CCCCCCOC(=O)NC(=N)c1ccc(NCc2nc3cc(C(=O)N(CCC(=O)OCC)c4ccccn4)ccc3n2C)cc1 [BIBR-1048] | 80.5 ± 6.2 |
| CN(C)C/C=C/C(=O)Nc1cc2c(Nc3ccc(F)c(Cl)c3)ncnc2cc1O[C@H]1CCOC1 [BIBW2992 )Tovok)] | 106.2 ± 1 |
| COc1c(C)cnc(Cn2cnc3c(Cl)nc(N)nc32)c1C [BIIB021] | 103 ± 1.5 |
| Cc1ccc(-n2nc(C(C)(C)C)cc2NC(=O)Nc2ccc(OCCN3CCOCC3)c3ccccc23)cc1 [BIRB 796] | 98.8 ± 1.3 |
| Nc1cc(C(F)(F)F)c(-c2cc(N3CCOCC3)nc(N3CCOCC3)n2)cn1 [BKM120 (NVP-BKM120)] | 112 ± 2.3 |
| COc1ccccc1N1CCN(CCN2C(=O)CC3(CCCC3)CC2=O)CC1 [BMY 7378] | 96.58 ± 0.1 |
| CC(C)c1cnn2c(NCc3ccccc3)cc(NCCCCCCN)nc12 [BS-181] | 101.1 ± 1 |
| NC(=O)c1ccc(I)c([N+](=O)[O-])c1 [BSI-201] | 103 ± 1.1 |
| O=C(O)[C@H]1O[C@@H](Oc2cc3oc(-c4ccccc4)cc(=O)c3c(O)c2O)[C@H](O)[C@@H](O)[C@@H]1O [Baicalin] | 106 ± 1.2 |
| CCOC(=O)[C@H](CCc1ccccc1)N[C@H]1CCc2ccccc2N(CC(=O)O)C1=O [Benazepril HCl] | 89.7 ± 11 |
| NC(CO)C(=O)NNCc1ccc(O)c(O)c1O (centres undefined) [Benserazide HCl] | 104 ± 2.7 |
| CC(C[N+](C)(C)C)OC(N)=O (centres undefined) [Bethanechol chloride] | 102 ± 1.9 |
| CC(O)(CS(=O)(=O)c1ccc(F)cc1)C(=O)Nc1ccc(C#N)c(C(F)(F)F)c1 (centres undefined) [Bicalutamide (Casodex)] | 102 ± 1.1 |
| COc1cc(Nc2c(C#N)cnc3cc(OCCCN4CCN(C)CC4)c(OC)cc23)c(Cl)cc1Cl [Bosutinib (SKI-606)] | 93.6 ± 3 |
| CCCCN1CCCCC1C(=O)Nc1c(C)cccc1C (centres undefined) [Bupivacaine HCl (marcain)] | 102 ± 4.2 |
| CC[C@H](Nc1ncnc2[nH]cnc12)c1nc2cccc(F)c2c(=O)n1-c1ccccc1 [CAL-101] | 109 ± 3.1 |
| O=C(O)c1ccc2c(c1)nc(Nc1cccc(Cl)c1)c1ccncc12 [CX-4945] | 106.3 ± 0.77 |
| Cc1nc(N)sc1-c1ccnc(Nc2ccc(N3CCOCC3)cc2)n1 [CYC116] | 94.51 ± 0.42 |

same assay, conditions: 0.01 µM; serum: 10% FBS; 72 h

| SMILES | relative viability [%] |
| --- | --- |
| CCN1CCN(C(=O)Cc2ccc(Nc3ncc(F)c(Nc4ccc(C(=O)Nc5ccccc5Cl)cc4)n3)cc2)CC1 [Aurora A Inhibitor I] | 98.55 ± 0.77 |
| CC(C)c1cc(C(C)C)c(CC(=O)NS(=O)(=O)Oc2c(C(C)C)cccc2C(C)C)c(C(C)C)c1 [Avasimibe (CI-1011)] | 105 ± 3.1 |
| CNC(=O)c1ccccc1Sc1ccc2c(/C=C/c3ccccn3)n[nH]c2c1 [Axitinib] | 100 ± 0.42 |
| CN1CCCC(n2nc(Cc3ccc(Cl)cc3)c3ccccc3c2=O)CC1 (centres undefined) [Azelastine HCl (Astelin)] | 98.15 ± 0.86 |
| CNC(=O)c1cc(Oc2ccc(NC(=O)Nc3ccc(Cl)c(C(F)(F)F)c3)c(F)c2)ccn1 [BAY 73-4506 (Regorafenib)] | 99.9 ± 2.3 |
| CC[C@@H]1C(=O)N(C)c2cnc(Nc3ccc(C(=O)N[C@H]4CC[C@H](N5CCN(CC6CC6)CC5)CC4)cc3OC)nc2N1C(C)C [BI6727 (Volasertib)] | 53.6 ± 0.88 |
| CC[C@@H]1C(=O)N(C)c2cnc(Nc3ccc(C(=O)NC4CCN(C)CC4)cc3OC)nc2N1C1CCCC1 [BI 2536] | 53 ± 1.2 |
| COC(=O)c1ccc2c(C(=Nc3ccc(N(C)C(=O)CN4CCN(C)CC4)cc3)c3ccccc3)c(O)[nH]c2c1 [BIBF1120 (Vargatef)] | 103.3 ± 0.75 |
| C/C(=C\C(=O)Nc1ccccc1C(=O)O)c1ccc2ccccc2c1 [BIBR1532] | 104.2 ± 0.53 |
| Cn1c(CNc2ccc(C(=N)N)cc2)nc2cc(C(=O)N(CCC(=O)O)c3ccccn3)ccc21 [BIBR 953] | 82.8 ± 11 |
| CCCCCCOC(=O)NC(=N)c1ccc(NCc2nc3cc(C(=O)N(CCC(=O)OCC)c4ccccn4)ccc3n2C)cc1 [BIBR-1048] | 88.7 ± 4.1 |
| CN(C)C/C=C/C(=O)Nc1cc2c(Nc3ccc(F)c(Cl)c3)ncnc2cc1O[C@H]1CCOC1 [BIBW2992 )Tovok)] | 103 ± 6 |
| COc1c(C)cnc(Cn2cnc3c(Cl)nc(N)nc32)c1C [BIIB021] | 104.1 ± 0.83 |
| Cc1ccc(-n2nc(C(C)(C)C)cc2NC(=O)Nc2ccc(OCCN3CCOCC3)c3ccccc23)cc1 [BIRB 796] | 97.2 ± 1 |
| Nc1cc(C(F)(F)F)c(-c2cc(N3CCOCC3)nc(N3CCOCC3)n2)cn1 [BKM120 (NVP-BKM120)] | 109.19 ± 0.024 |
| COc1ccccc1N1CCN(CCN2C(=O)CC3(CCCC3)CC2=O)CC1 [BMY 7378] | 99.07 ± 0.31 |
| CC(C)c1cnn2c(NCc3ccccc3)cc(NCCCCCCN)nc12 [BS-181] | 99.7 ± 1.7 |
| NC(=O)c1ccc(I)c([N+](=O)[O-])c1 [BSI-201] | 105.9 ± 0.65 |
| O=C(O)[C@H]1O[C@@H](Oc2cc3oc(-c4ccccc4)cc(=O)c3c(O)c2O)[C@H](O)[C@@H](O)[C@@H]1O [Baicalin] | 118.8 ± 1.1 |
| CCOC(=O)[C@H](CCc1ccccc1)N[C@H]1CCc2ccccc2N(CC(=O)O)C1=O [Benazepril HCl] | 89.6 ± 6.1 |
| NC(CO)C(=O)NNCc1ccc(O)c(O)c1O (centres undefined) [Benserazide HCl] | 110 ± 2.1 |
| CC(C[N+](C)(C)C)OC(N)=O (centres undefined) [Bethanechol chloride] | 105 ± 1.4 |
| CC(O)(CS(=O)(=O)c1ccc(F)cc1)C(=O)Nc1ccc(C#N)c(C(F)(F)F)c1 (centres undefined) [Bicalutamide (Casodex)] | 101.3 ± 0.41 |
| COc1cc(Nc2c(C#N)cnc3cc(OCCCN4CCN(C)CC4)c(OC)cc23)c(Cl)cc1Cl [Bosutinib (SKI-606)] | 94.5 ± 6 |
| CCCCN1CCCCC1C(=O)Nc1c(C)cccc1C (centres undefined) [Bupivacaine HCl (marcain)] | 98.8 ± 1.7 |
| CC[C@H](Nc1ncnc2[nH]cnc12)c1nc2cccc(F)c2c(=O)n1-c1ccccc1 [CAL-101] | 114 ± 1.2 |
| O=C(O)c1ccc2c(c1)nc(Nc1cccc(Cl)c1)c1ccncc12 [CX-4945] | 111 ± 7.9 |
| Cc1nc(N)sc1-c1ccnc(Nc2ccc(N3CCOCC3)cc2)n1 [CYC116] | 101.6 ± 0.83 |
